Results published in PubChem BioAssay AID254 (DTP/NCI, 2004).
Values joined by “and” are separate entries in the source; they are usually repeats but may differ in a detail not shown here. Identical values can stand only once. Toxic doses and inconclusive results are not listed.

Test system: L1210 leukemia iv in BDF1 mice, survival T/C
Experiment: NCI In Vivo Anticancer Drug Screen. Data for tumor model L1210 Leukemia (intravenous) in B6D2F1 (BDF1) mice
Conditions: endpoint: mean survival time, higher = longer survival
Description: The antitumor activity of compounds was measured in mice bearing transplantable tumors. Survival or tumor size were measured and the results are expressed as the measurement made in the treated group (T) divided by the measurement made in the vehicle treated control group (C). The tumor model used in this assay is L1210 Leukemia (intravenous) in B6D2F1 (BDF1) mice

Question: Which T/C (dose: 28.0 mg/kg/injection, schedule: Q01DX001 (ip), vehicle: saline) does the source give for O=P1(N(CCCl)CCCl)NCCCO1 (configuration not stated) here?
Answer: 106 % of control and 109 % of control

Question: And the T/C (dose: 60.0 mg/kg/injection, schedule: Q01DX001 (ip), vehicle: saline)?
Answer: 155 % of control and 165 % of control

Question: And the T/C (dose: 64.0 mg/kg/injection, schedule: Q01DX001 (ip), vehicle: saline)?
Answer: 169 % of control

Question: And the T/C (dose: 75.0 mg/kg/injection, schedule: Q01DX001 (ip), vehicle: saline)?
Answer: 154 % of control and 164 % of control and 171 % of control

Question: What about the T/C (dose: 80.0 mg/kg/injection, schedule: Q01DX001 (ip), vehicle: saline) of the same compound?
Answer: 158 % of control and 165 % of control

Question: What about the T/C (dose: 80.0 mg/kg/injection, schedule: Q04DX004 (ip), vehicle: saline) of the same compound?
Answer: 206 % of control

Question: And the T/C (dose: 83.0 mg/kg/injection, schedule: Q01DX001 (ip), vehicle: saline)?
Answer: 170 % of control

Question: What about the T/C (dose: 118.0 mg/kg/injection, schedule: Q01DX001 (ip), vehicle: saline) of the same compound?
Answer: 162 % of control and 202 % of control

Question: And the T/C (dose: 120.0 mg/kg/injection, schedule: Q04DX004 (ip), vehicle: saline)?
Answer: 285 % of control

Question: What about the T/C (dose: 225.0 mg/kg/injection, schedule: Q01DX001 (ip), vehicle: saline) of the same compound?
Answer: 390 % of control and 290 % of control and 304 % of control

Question: What about the T/C (dose: 234.0 mg/kg/injection, schedule: Q01DX001 (ip), vehicle: saline) of the same compound?
Answer: 522 % of control and 302 % of control

Question: What about the T/C (dose: 468.0 mg/kg/injection, schedule: Q01DX001 (ip), vehicle: saline) of the same compound?
Answer: 500 % of control

Question: How did the T/C (dose: 0.6 mg/kg/injection, schedule: Q01DX005 (iv), vehicle: clinical formulation) turn out when COc1cccc2c1C(=O)c1c(O)c3c(c(O)c1C2=O)C[C@@](O)(C(=O)CO)C[C@@H]3OC1CC(N)C(O)C(C)O1 (some centres not stated) was run?
Answer: 100 % of control

Question: What about the T/C (dose: 0.7 mg/kg/injection, schedule: Q01DX009 (ip), vehicle: clinical formulation) of the same compound?
Answer: 97 % of control

Question: And the T/C (dose: 0.7 mg/kg/injection, schedule: Q01DX009 (sc), vehicle: clinical formulation)?
Answer: 100 % of control

Question: What about the T/C (dose: 0.75 mg/kg/injection, schedule: Q01DX005 (iv), vehicle: saline) of the same compound?
Answer: 90 % of control

Question: What about the T/C (dose: 0.9 mg/kg/injection, schedule: Q01DX005 (iv), vehicle: clinical formulation) of the same compound?
Answer: 102 % of control

Question: What about the T/C (dose: 1.1 mg/kg/injection, schedule: Q01DX009 (ip), vehicle: clinical formulation) of the same compound?
Answer: 100 % of control

Question: What about the T/C (dose: 1.1 mg/kg/injection, schedule: Q01DX009 (sc), vehicle: clinical formulation) of the same compound?
Answer: 100 % of control

Question: And the T/C (dose: 1.4 mg/kg/injection, schedule: Q01DX005 (iv), vehicle: clinical formulation)?
Answer: 101 % of control

Question: What about the T/C (dose: 1.5 mg/kg/injection, schedule: Q01DX005 (iv), vehicle: saline) of the same compound?
Answer: 101 % of control

Question: And the T/C (dose: 1.7 mg/kg/injection, schedule: Q01DX009 (ip), vehicle: clinical formulation)?
Answer: 102 % of control

Question: What about the T/C (dose: 1.7 mg/kg/injection, schedule: Q01DX009 (sc), vehicle: clinical formulation) of the same compound?
Answer: 105 % of control

Question: What about the T/C (dose: 2.4 mg/kg/injection, schedule: Q01DX005 (iv), vehicle: clinical formulation) of the same compound?
Answer: 108 % of control

Question: And the T/C (dose: 2.4 mg/kg/injection, schedule: Q01DX009 (ip), vehicle: clinical formulation)?
Answer: 105 % of control

Question: And the T/C (dose: 2.4 mg/kg/injection, schedule: Q01DX009 (sc), vehicle: clinical formulation)?
Answer: 112 % of control

Question: What about the T/C (dose: 2.5 mg/kg/injection, schedule: Q01DX005 (iv), vehicle: saline) of the same compound?
Answer: 196 % of control

Question: What about the T/C (dose: 2.8 mg/kg/injection, schedule: Q01DX005 (iv), vehicle: clinical formulation) of the same compound?
Answer: 108 % of control and 117 % of control

Question: What about the T/C (dose: 3.0 mg/kg/injection, schedule: Q01DX005 (iv), vehicle: saline) of the same compound?
Answer: 114 % of control

Question: What about the T/C (dose: 3.6 mg/kg/injection, schedule: Q01DX009 (ip), vehicle: clinical formulation) of the same compound?
Answer: 110 % of control

Question: And the T/C (dose: 3.6 mg/kg/injection, schedule: Q01DX009 (sc), vehicle: clinical formulation)?
Answer: 119 % of control

Question: What about the T/C (dose: 4.0 mg/kg/injection, schedule: Q01DX005 (iv), vehicle: saline) of the same compound?
Answer: 86 % of control

Question: What about the T/C (dose: 4.2 mg/kg/injection, schedule: Q01DX005 (iv), vehicle: clinical formulation) of the same compound?
Answer: 123 % of control

Question: And the T/C (dose: 6.3 mg/kg/injection, schedule: Q01DX005 (iv), vehicle: clinical formulation)?
Answer: 124 % of control

Question: What about the T/C (dose: 7.0 mg/kg/injection, schedule: Q01DX005 (iv), vehicle: saline) of the same compound?
Answer: 87 % of control

Question: And the T/C (dose: 9.4 mg/kg/injection, schedule: Q01DX005 (iv), vehicle: clinical formulation)?
Answer: 115 % of control

Question: And the T/C (dose: 14.1 mg/kg/injection, schedule: Q01DX005 (iv), vehicle: clinical formulation)?
Answer: 113 % of control

Question: How did the T/C (dose: 7.0 mg/kg/injection, schedule: Q01DX001 (ip), vehicle: other) turn out when O=NN(CCCl)C(=O)NC1CCS(=O)(=O)C1 (configuration not stated) (tested in a mixture with another compound) was run?
Answer: 267 % of control

Question: And the T/C (dose: 11.0 mg/kg/injection, schedule: Q01DX001 (ip), vehicle: other)?
Answer: 239 % of control

Question: What about the T/C (dose: 14.0 mg/kg/injection, schedule: Q01DX001 (oral), vehicle: other) of the same compound?
Answer: 276 % of control

Question: What about the T/C (dose: 16.0 mg/kg/injection, schedule: Q01DX001 (ip), vehicle: other) of the same compound?
Answer: 281 % of control

Question: What about the T/C (dose: 22.0 mg/kg/injection, schedule: Q01DX001 (oral), vehicle: other) of the same compound?
Answer: 474 % of control

Question: What about the T/C (dose: 24.0 mg/kg/injection, schedule: Q01DX001 (ip), vehicle: other) of the same compound?
Answer: 281 % of control

Question: What about the T/C (dose: 32.0 mg/kg/injection, schedule: Q01DX001 (oral), vehicle: other) of the same compound?
Answer: 495 % of control

Question: And the T/C (dose: 36.0 mg/kg/injection, schedule: Q01DX001 (ip), vehicle: other)?
Answer: 232 % of control

Question: And the T/C (dose: 48.0 mg/kg/injection, schedule: Q01DX001 (oral), vehicle: other)?
Answer: 253 % of control

Question: What about the T/C (dose: 72.0 mg/kg/injection, schedule: Q01DX001 (oral), vehicle: other) of the same compound?
Answer: 213 % of control
